Consider 4 molecules from US20140378502A1, “Par1 Inhibitors for Use in the Treatment or Prevention of Paramyxoviridae Infections” (Université Laval, priority 2011, published 2014).

Where no end group is shown, it is not given here.

In data set [1] the test system is hMPV. To be noted: background statement; cited from earlier work.
The test system of data set [2] is hMPV. Conditions: background statement; cited from earlier work. This is another data set of the same source.
For data set [3], the system named is hMPV. Conditions: background statement; cited from earlier work. The source holds these as a separate data set.
Data set [4] can be described thus: Uninfected (sham infected) mice treated for 5 days, check for toxic and non specific effects. The data set is classed as in vivo, BALB/c mice. To be noted: 500 μM. On the procedure: In the second protocol, groups of 18 4-6-week-old BALB/c mice (Charles River Laboratories) were infected intranasally with 6-8×10^5 TCID50 hMPV strain C-85473 in 25 μl of OptiMEM™ supplemented with the PAR-1 agonist, PAR-1 antagonist or control peptide at a final concentration of 500 μM. As infected controls, groups of 18 4-6-week-old BALB/c mice (Charles River Laboratories) were infected intranasally with 6-8×10^5 TCID50 hMPV strain C-85473 in 25 μl of OptiMEM™ supplemented with H2O or DMSO. As uninfected control, groups 18 mice were sham infected with the concentrated supernatant of non-infected LLC-MK2 cells supplemented with the PAR-1 agonist, PAR-1 antagonist or control peptide at a final concentration of 500 μM or DMSO. On day 1 through 4 post infection, animals were treated with the PAR-1 agonist, PAR-1 antagonist or control peptide at a final concentration of 50 μM or 500 μM, or H2O or DMSO for control groups, resulting in a 5-day treatment in total. Animals were housed in groups of five and three in micro-isolator cages. The animals were evaluated on a daily basis for mortality, weight loss, and the presence of symptoms. On day 5 post-infection, lungs were removed from six mice per group for the evaluation of viral titres by cell culture and cytokine expression by Iuminex™. […]
(§1) 250 μL of lung homogenates (see section “Pulmonary viral titers”) were added to 250 μl 50 mM KPO4, pH 6.0 buffer containing 0.2% CHAPS {3-[(3-cholamidopropyl)-dimethylammonio]1-1-propanesulfonate} (Sigma) and 0.2% of a protease inhibitor cocktail (Sigma) and stored at −20° C. until the day of analysis. Samples were centrifuged at 13,800×g for 10 min at 4° C., and 50 μl of the supernatant was used for cytokine quantification. Levels of interleukin-4, IL-6, IL-12(p40), IL-12(p70), IFN-γ, KC, MCP-1, MIP-1α, RANTES were determined by the use of a 9-plex mouse bead kits (BioRad™/Millipore™) according to the manufacturer's instructions. Experiments were performed in a 96-well filter plate and results were analysed with the Luminex™ system (Qiagen™).

Data set [5] has as its system hMPV strain C-85473. Description: hMPV-infected BALB/c mice, five-day pre-exposure prophylactic treatment regimen (experiment 2). The data set is classed as in vivo. Conditions: 500 μM, 5-day treatment. How it is done:
(§2) hMPV viral titers were determined by 10-fold serial dilutions of virus in 24-well plates containing LLC-MK2 cells. Before infection, cells were washed twice with phosphate-buffered saline (PBS) to remove residual serum proteins that could inhibit trypsin activity. Infected plates were incubated at 37° C. with 5% CO2 and replenished with 1 μl of fresh trypsin (0.0002%) every other day. hRSV viral titers were determined by 10-fold serial dilutions of virus in 24-well plates containing Hep2 cells. Before infection, cells were washed twice with phosphate-buffered saline (PBS). Infected plates were incubated at 37° C. with 5% CO2. On day 4 post infection, plates were fixed with 80% acetone at −20° C. for 30 min, washed with PBS and air dried. The presence of hRSV was detected by an immuno-staining assay using a monoclonal goat Anti-Respiratory Syncytial Virus primary antibody and a donkey anti-Goat IgG Secondary Antibody, HRP conjugate (both from Cederlane). Virus titers were reported as 50% tissue culture infectious doses (TCID50) per ml, per mouse or per gram of lung. The lower limit of detection of the assay is 10^2 TCID50 per gram. TCID50 were calculated by the Reed and Muench method.
In the second protocol, groups of 18 4-6-week-old BALB/c mice (Charles River Laboratories) were infected intranasally with 6-8×10^5 TCID50 hMPV strain C-85473 in 25 μl of OptiMEM™ supplemented with the PAR-1 agonist, PAR-1 antagonist or control peptide at a final concentration of 500 μM. As infected controls, groups of 18 4-6-week-old BALB/c mice (Charles River Laboratories) were infected intranasally with 6-8×10^5 TCID50 hMPV strain C-85473 in 25 μl of OptiMEM™ supplemented with H2O or DMSO. As uninfected control, groups 18 mice were sham infected with the concentrated supernatant of non-infected LLC-MK2 cells supplemented with the PAR-1 agonist, PAR-1 antagonist or control peptide at a final concentration of 500 μM or DMSO. On day 1 through 4 post infection, animals were treated with the PAR-1 agonist, PAR-1 antagonist or control peptide at a final concentration of 50 μM or 500 μM, or H2O or DMSO for control groups, resulting in a 5-day treatment in total. Animals were housed in groups of five and three in micro-isolator cages. The animals were evaluated on a daily basis for mortality, weight loss, and the presence of symptoms. On day 5 post-infection, lungs were removed from six mice per group for the evaluation of viral titres by cell culture and cytokine expression by Iuminex™. Lungs of another six mice per group were removed for histopathological analysis.
(§3) On day 5 post infection, six animals per group were sacrificed, the lungs were removed and snap frozen in liquid nitrogen. Lungs were weighed, homogenized in 1 ml of PBS, centrifuged (2000 rpm, 10 min) and the supernatant was used to infect LLC-MK2 monolayers (in case of hMPV-infected mice) or Hep2 monolayer (in case of hRSV-infected mice) for virus titration as reported in the section “Viral titers”.
as §1
On day 5 post infection, 6 animals per group were sacrificed, and the lungs were collected at specified time points and fixed with 4% buffered formalin. […]

The subject of data set [6] is hMPV strain C-85473. Description: hMPV-infected BALB/c mice, five-day treatment started simultaneously or 24 h post infection (experiment 3). The data set is classed as in vivo. Conditions: 500 μM. How it is done:
as §2
In a third protocol, Two groups of 12 4-6-week-old BALB/c mice (Charles River Laboratories) were infected intranasally with 6×105 TCID50 hMPV strain C-85473 in 25 μl of OptiMEM™, supplemented with the PAR-1 agonist or PAR-1 antagonist at a final concentration of 500 μM and treated on days 1 through 4 post infection with the PAR-1 agonist or PAR-1 antagonist (500 μM). Two more groups of 4-6-week-old BALB/c mice (Charles River Laboratories) were infected intranasally with 6×105 TCID50 hMPV strain C-85473 in 25 μl of OptiMEM™. These groups were treated from day 1 though 5 post infection (treatment delayed 24 h post-infection) with the PAR-1 agonist or PAR-1 antagonist (500 μM). As infected controls, groups of 12 4-6-week-old BALB/c mice (Charles River Laboratories) were infected intranasally with 4×105 TCID50 hMPV strain C-85473 in 25 μl of OptiMEM supplemented with DMSO. All animals were housed in groups of four in micro-isolator cages. The animals were evaluated on a daily basis for mortality, weight loss, and the presence of symptoms. On day 5 post-infection, lungs were removed from six mice per group for the evaluation of viral titres by cell culture
as §3
(§4) Differences in weight loss between groups was analysed by repeated measures two-way ANOVA. Viral titers, cytokine levels and mean histopathology scores were analysed using student t-test.

For data set [7], the system named is hMPV strain C-85473. The experiment in a line: hMPV-infected BALB/c mice, three-day prophylactic treatment regimen (experiment 1). Conditions: 3-day treatment; for mice that reached the humane endpoint: none in the untreated group. The data set is classed as in vivo. How it is done:
as §2
In the first protocol, groups of 12 4-6-week-old female BALB/c mice (Charles River Laboratories) were infected intranasally with 4-7×10^5 TCID50 hMPV strain C-85473 in 25 μl of OptiMEM™ supplemented with the PAR-1 or PAR-1 antagonist at a final concentration of 50 μM or 500 μM. As infected controls, groups of 12 4-6-week-old BALB/c mice (Charles River Laboratories) were infected intranasally with 4-7×10^5 TCID50 hMPV strain C-85473 in 25 μl of OptiMEM™ supplemented with H2O or DMSO. As an uninfected control, 12 mice were sham infected with the concentrated supernatant of non-infected LLC-MK2 cells supplemented with DMSO. On day 1 and 2 post infection, animals were treated with the PAR-1 agonist or PAR-1 antagonist at a final concentration of 50 μM or 500 μM, or H2O or DMSO for control groups, resulting in a 3-day treatment in total. All animals were housed in groups of four in micro-isolator cages. The animals were evaluated on a daily basis for mortality, weight loss, and the presence of symptoms. On day 5 post-infection, lungs were removed from six mice per group for the evaluation of viral titres by cell culture and cytokine expression by Luminex™.
as §3, §1, §4

For `NC(=O)c1ncn([C@@H]2O[C@H](CO)[C@@H](O)[C@H]2O)n1` [Ribavirin], the “effect in a lung transplant recipient with hMPV pneumonia” value in the data set on hMPV [1] is “effective”. Besides, the “effect in hMPV-infected mice” value in the data set on hMPV [2] was “effective”. In addition, in the data set on hMPV [3], the “in vitro activity against hMPV” value is given as “good in vitro activity”.
As to `C[C@]12C[C@H](O)[C@H]3[C@@H](CCC4=CC(=O)CC[C@@]43C)[C@@H]1CC[C@@H]2C(=O)CO` [corticosterone], the “effect in hMPV-infected mice” value in the data set with hMPV [2] was “minimal benefit”.
Turning to FTLLR-NH2 [control peptide, FTLLR-NH2], the “weight loss or symptoms in uninfected mice” value in data set [4] was “In none of the uninfected groups significant weight loss or symptoms were observed”.
Turning to TFLLR-NH2 [PAR-1 agonist], the “lung histopathological inflammation criteria compared to uninfected, untreated mice” value in the data set with hMPV strain C-85473 [5] (day 5 post hMPV infection) is “increases in all but one (peribronchial) inflammation criteria”. Also, in the data set with hMPV strain C-85473 [5] (day 5 post hMPV infection, infected treated vs infected untreated mice), the “pulmonary inflammation (histopathology)” value is “No significant difference”. In addition, the “pulmonary cytokine/chemokine levels compared to infected mice treated with H2O” value in the data set with hMPV strain C-85473 [5] (day 5 post infection, Luminex) is “increased levels of IL-4, IL-12(p40) and MCP-1”. Besides, in the data set on hMPV strain C-85473 [5] (day 5 post infection, Luminex), the “pulmonary cytokine/chemokine levels compared to mice treated with the control peptide” value was “increased levels of IL-4, KC, MCP-1 and MIP-1α”. Also, the pulmonary viral titers entry was “No significant difference” in the data set on hMPV strain C-85473 [5] (day 5 post infection, vs other infected groups) and “No significant difference” with hMPV strain C-85473 [7] (day 5 post hMPV infection, 50 or 500 μM, vs diluted DMSO or H2O treated mice). In the data set with hMPV strain C-85473 [5] (hMPV-infected mice, vs infected untreated mice), the “weight loss (and symptoms)” value is “no significant difference in weight loss”. Moreover, the weight loss result in the data set with hMPV strain C-85473 [6] (5-day prophylactic treatment started simultaneously with infection, vs infected/untreated group (FIG. 12)) was “regained weight less rapidly than the control”; in the data set on hMPV strain C-85473 [6] (5-day treatment started 24 h post infection, vs infected/untreated mice (FIG. 13)) it was “regained their weight more slowly than infected/untreated mice”; with hMPV strain C-85473 [6] (5-day treatment started 24 h post infection, vs infected/untreated mice (FIG. 13), listed as PAR1 agonist) it was “more weight loss than infected/untreated mice”; with hMPV strain C-85473 [7] (hMPV-infected mice, 50 or 500 μM intranasal, vs infected untreated mice (H2O or DMSO), followed 14 days) it was “dose-dependent increase in weight loss”. In the data set on hMPV strain C-85473 [6] (day 5 post infection), the “pulmonary viral titers, treatment started simultaneously vs 24 h post infection” value is listed as “No significant difference”. Also, the “mice that reached the humane endpoint” value in the data set on hMPV strain C-85473 [7] (50 μM) was “One out of 6”; in the data set with hMPV strain C-85473 [7] (500 μM), 3 out of 6. The “difference in weight loss vs infected untreated mice” value in the data set on hMPV strain C-85473 [7] (500 μM) is recorded as “significant on days 5 through 7”. For the same molecule, the “cytokine expression in the lungs” value with hMPV strain C-85473 [7] (day 5 post infection, 50 or 500 μM, Luminex) was “dose-dependent increases in IL-6, IL-12(p40) and MCP-1”. Further, in data set [4], the “weight loss or symptoms in uninfected mice” value is recorded as “In none of the uninfected groups significant weight loss or symptoms were observed”.
